Values of other authors as cited in US20030215409A1, “Process for the treatment of human keratinous fibers” (L'OREAL, priority 2002, published 2003).

System: hair
Conditions: hair densification, current compositions

Nc1ccnc(N)[n+]1[O-] [aminexil]
time after which the user begins to have a benefit: 1.5 months
